# Reference: ChEMBL document CHEMBL4627384, “l-Thyroxin and the Nonclassical Thyroid Hormone TETRAC Are Potent Activators of PPARγ” (J Med Chem, 2020)
# Activity calls are given as the source filed them. The rule behind the calls is not given here.
# What was measured:
# [1] = Cmax in RjOrl:Swiss CD-1 mouse at 10 mg/kg, po administered as single dose measured after 1 to 24 hrs by LC-MS analysis; type: ADME, organism-based; set-up: dose 10 mg/kg, route oral; conditions: in vivo
# [2] = Toxicity in RjOrl:Swiss CD-1 mouse assessed as induction of adverse effect at 10 mg/kg, po administered as single dose; type: organism-based; conditions: in vivo
# [3] = Plasma concentration in RjOrl:Swiss CD-1 mouse at 10 mg/kg, po administered as single dose measured after 4 to 24 hrs by LC-MS analysis; type: ADME, organism-based; conditions: in vivo
# [4] = Tmax in RjOrl:Swiss CD-1 mouse at 10 mg/kg, po administered as single dose measured after 1 to 24 hrs by LC-MS analysis; type: ADME, organism-based; conditions: in vivo
# [5] = Half life in RjOrl:Swiss CD-1 mouse at 10 mg/kg, po administered as single dose measured after 1 to 24 hrs by LC-MS analysis; type: ADME, organism-based; conditions: in vivo
# [6] = molecular target: T1, Peroxisome proliferator-activated receptor gamma (Homo sapiens, UniProt P37231); experiment: Agonist activity at recombinant human pFA-CMV fused PPARgamma expressed in HEK293T cells transfected with pFR-luciferase plasmid and pRL-SV40 plasmid incubated for 14 to 16 hrs by dual glo luciferase reporter gene assay; type: cell-based, HEK-293T
# T1 sequence (P37231 whole entry): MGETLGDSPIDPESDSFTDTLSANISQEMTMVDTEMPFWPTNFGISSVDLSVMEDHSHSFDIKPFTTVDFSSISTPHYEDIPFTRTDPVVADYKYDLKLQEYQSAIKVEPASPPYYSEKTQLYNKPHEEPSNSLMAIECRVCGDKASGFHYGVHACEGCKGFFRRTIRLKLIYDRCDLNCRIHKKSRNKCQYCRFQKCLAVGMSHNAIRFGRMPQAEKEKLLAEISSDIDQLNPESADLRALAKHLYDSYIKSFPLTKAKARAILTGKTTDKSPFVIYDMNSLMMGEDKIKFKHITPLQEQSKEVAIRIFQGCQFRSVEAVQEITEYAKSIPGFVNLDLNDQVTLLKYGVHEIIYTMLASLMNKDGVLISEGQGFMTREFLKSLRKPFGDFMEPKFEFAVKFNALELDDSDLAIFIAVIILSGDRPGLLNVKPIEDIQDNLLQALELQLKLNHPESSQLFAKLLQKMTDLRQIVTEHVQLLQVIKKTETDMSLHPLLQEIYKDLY
# [7] = molecular target: T2, Retinoic acid receptor RXR-alpha (Homo sapiens, UniProt P19793); experiment: Agonist activity at recombinant human pFA-CMV fused RXRalpha LBD expressed in HEK293T cells transfected with pFR-luciferase plasmid and pRL-SV40 plasmid incubated for 14 to 16 hrs by dual glo luciferase reporter gene assay; type: cell-based, HEK-293T; conditions: hek-293t
# T2 sequence (P19793 whole entry): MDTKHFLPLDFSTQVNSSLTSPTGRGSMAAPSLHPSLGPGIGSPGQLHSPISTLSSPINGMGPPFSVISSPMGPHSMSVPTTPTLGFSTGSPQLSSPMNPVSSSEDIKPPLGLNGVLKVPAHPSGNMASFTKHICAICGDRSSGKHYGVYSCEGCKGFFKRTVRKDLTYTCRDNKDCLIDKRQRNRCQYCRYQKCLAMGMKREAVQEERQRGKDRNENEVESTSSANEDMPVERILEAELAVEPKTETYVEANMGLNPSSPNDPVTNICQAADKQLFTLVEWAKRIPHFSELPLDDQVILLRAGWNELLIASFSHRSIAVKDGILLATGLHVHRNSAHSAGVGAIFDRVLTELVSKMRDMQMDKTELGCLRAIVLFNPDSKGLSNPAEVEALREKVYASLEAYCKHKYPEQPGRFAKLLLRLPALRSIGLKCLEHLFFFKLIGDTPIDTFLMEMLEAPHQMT
# [8] = Drug level in human serum; type: ADME, cell-free; conditions: read-out: Drug uptake
# [9] = molecular target: T1, Peroxisome proliferator-activated receptor gamma; experiment: Binding affinity to recombinant PPARgamma LBD (unknown origin) by isothermal titration calorimetry
# HEK-293T = experiment: Activation of renilla luciferase expressed in HEK293T cells at 3 uM incubated for 14 to 16 hrs by reporter gene assay; type: cell-based; conditions: Renilla reniformis
# [10] = Drug level in euthyroid human serum by RIA; type: ADME, cell-free; conditions: read-out: Drug uptake
SMILES,Cmax [1] [ng/mL],Activity [2],concentration [3] [nM],Tmax [4] [h],half-life [5] [h],EC50 [6] [µM],EC50 [7],concentration [8] [nM],Kd [9] [µM],Activity (HEK-293T),concentration [10] [nM]
O=C(O)Cc1cc(Br)c(Oc2cc(I)c(O)c(I)c2)c(I)c1,3180,Non-Toxic,40,1,19.4,–,–,–,–,–,–
N[C@@H](Cc1cc(Br)c(Oc2cc(I)c(O)c(I)c2)c(I)c1)C(=O)O,4480,Non-Toxic,40,2,8.7,12.9,–,–,–,–,–
N[C@@H](Cc1cc(I)c(Oc2ccc(O)c(I)c2)c(I)c1)C(=O)O [LIOTHYRONINE],–,–,–,–,–,5.8,Not Active,1.3 to 2.1,0.71,–,–
N[C@@H](Cc1ccc(Oc2cc(I)c(O)c(I)c2)c(I)c1)C(=O)O [REVERSE TRIIODOTHYRONINE],–,–,–,–,–,3.8,Not Active,–,0.63,–,–
O=C(O)Cc1cc(I)c(Oc2ccc(O)c(I)c2)c(I)c1 [TIRATRICOL],–,–,–,–,–,–,–,–,–,inactive,0.24
